Ends that are not written are not given here.
Legend:
[1] = target: T1, soluble ectodomain of APP (APPs, APP 695) (Homo sapiens, UniProt P05067); assay: Biolayer interferometry, biotinylated peptides on streptavidin biosensors vs purified soluble APP (APPs); type: binding; conditions: 30°C, biotinylated peptide on SA biosensors
T1 construct: host or cells: Sf9 insect cells (baculovirus), conditioned medium
Description: Sf9 cells (ATCC CRL 1711) were grown in TMN-FH complete medium (Pharmingen) in suspension and infected at a multiplicity of infection of 2 with a titred stock of recombinant virus expressing human APP695. Conditioned media and/or cells were harvested 6 days after infection. Cells and debris were removed by centrifugation (at 1000 x g for 15 min).
Recombinant baculoviruses were produced according to published protocols. A fragment containing full-length APP 695 was subcloned into the baculovirus transfer vector pBlueBac3 (Invitrogen). The resulting recombinant vector was co-transfected with baculovirus DNA into sf9 cells. Recombinant APP expression was verified by Western blot hybridization using mouse MAb against human APP (Cat # MAB348, Millipore).
APPs was purified from baculovirus conditioned medium to >95% purity, as assessed by densitometry analysis of Coomassie stained SDS PAGE gels, by Arvys Proteins, Stamford, CT, using the following strategy. The conditioned medium proteins were purified by heparin-affinity chromatography, followed by two gel filtration chromatography steps over HiPrep Sephacryl S300 columns and two steps of anion exchange chromatography on HiTrapQ columns.
The binding affinities of peptides P1, scrambled P1, P4, P5, P7 and P8 for the soluble ectodomain of APP or control IgG were measured by biolayer interferometry on an Octet RED96 System (Pall FortéBio Corp., Menlo Park, CA). This system monitors interference of light reflected from two sources (an internal reflection surface and the liquid/solid interface of a fiber optic sensor) to measure the rate of binding of molecules to the biosensor surface.
Peptides were synthesized and biotinylated at the NH2-terminus by Dr. Michael Freydkin at Biopeptides, Inc., San Diego, CA, and purified to >95% by HPLC. Biotinylated peptides were loaded onto Streptavidin (SA) biosensors (Pall FortéBio Corp.) at empirically determined concentrations. All affinity measurements were carried out in Kinetics Buffer (KB) (1X PBS, 0.002% Tween-20, and 0.01% BSA) at 30°C. Typically, the biosensors were pre-equilibrated in KB for 120s, loaded with a biotinylated peptide at optimal concentrations and times, quenched with 10 μg/ml biocytin in KB for 180s, brought to baseline in KB for 120s and transferred to wells containing purified APPs (0–200 nM). Multiple negative controls were run for each peptide including association buffer only (no APP) or with IgG replacing APP. Binding kinetics were calculated using the FortéBio Data Analysis v7.1 software. The association (k on) and dissociation (k off) rate constants were obtained by fitting the association and dissociation data to a 1:1 model. Binding affinity, KD, was calculated as k off/k on.

[2] = ref evidence that will be presented elsewhere, cited from earlier work
Text: Two types of technologies have largely been pursued in the field thus far in efforts to reduce the levels of Aβ: β- or γ- secretase inhibitors or modulators, and the use of Aβ-specific monoclonal antibodies. Neither approach has been entirely successful, and γ-secretase inhibitors have been particularly problematic because of off-target effects due to the inhibition of their other substrates, Notch in particular.

[3] = test system: NICD (γ-secretase activity); assay: NICD levels in neocortex of treated mThy1-hAPP mice by Western blot (γ-secretase activity); type: in vivo, mouse; conditions: peptide-infused mThy1-hAPP mice vs PBS, n = 5, two weeks after end of treatment
Description: Extracts of neocortex of mThy1-hAPP mice treated with P4, P8 or PBS only were electrophoresed on SDS gels and Western blotted with primary rabbit antibodies against NICD (Cat# 07–1232, Millipore) at 4°C overnight, followed by horse-radish peroxidase (HRP)-conjugated goat anti-rabbit IgG (Bio-Rad). The immunoreactive bands were detected by chemiluminescence (Thermo Scientific).
An optimal therapeutic approach to AD would avoid producing serious effects on other biochemically and physiologically important processes, as would occur if the cleavages of any of the other substrates of β- or γ-secretase were affected in the process of reducing the levels of Aβ. An especially well-studied example is the γ-secretase activity of PS-1 that is critically involved in the final enzymatic cleavage of Aβ from APP; it also functions in an essential developmental process that generates NICD from Notch. […] At the same time we analyzed the same tissue samples for their β-secretase (BACE-1) activity and APP expression. Extracts were prepared of the neocortex of Tg mice that had been treated with P4, P8 or PBS, and the levels of NICD were determined by Western blot analysis with a primary rabbit Ab against NICD. […]

[4] = test system: NICD / γ-secretase in Jurkat cells; assay: NICD levels in extracts of Jurkat cells by ELISA (γ-secretase activity); conditions: 0–10 μM, 24 h, 450 nm, percent control, n = 2–3
Description: Jurkat cells (Sigma) were cultured in RPMI 1640 medium supplemented with 10% FCS, 2 mM L-glutamine, penicillin and streptomycin at 37°C in the presence of 5% CO2. […] After harvesting the cells, extracts were prepared by sonication in lysis buffer (Cell Signaling Technologies) supplemented with 1mM PMSF and complete protease inhibitor cocktail (Roche). The solubilized extracts were then used in ELISA assays to determine NICD levels, as a measure of γ-secretase activity, using the PathScan Cleaved Notch 1 (Val 1744) sandwich ELISA kit (Cell Signaling Technologies) according to the manufactuer’s protocols.

[5] = test system: IMR-32 human neuroblastoma cell-line (endogenous Aβ40 or 42 production); assay: Endogenous Aβ40 and 42 production in IMR-32 culture medium by ELISA; type: cell-based
Description: A human neuroblastoma cell-line, IMR-32 (ATCC CCL-127) was cultured in MEM Earles medium containing 10% fetal bovine serum, 2 mM L-glutamine in the presence of penicillin and streptomycin. Equal numbers of cells (0.3 x 10^6 per well) were plated on 6-well plates overnight. Peptides (0–5 μM) were added to fresh culture medium (500 μl per well) and left in the incubator for 24 hours, after which the culture medium from each well was removed and stored at -80°C in the presence of 4-(2-Aminoethyl) benzenesulfonyl fluoride hydrochloride (AEBSF) and protease inhibitors. Prior to use, the culture medium was centrifuged in an eppendorf microfuge for 5 min at 4°C, the supernatant diluted with an equal volume of sample diluent buffer (Wako) and analyzed for the presence of Aβ40 or 42 using a commercial ELISA kit (Wako).

BACE-1 in IMR-32 cells = assay: BACE-1 activity in extracts of cultured IMR-32 cells; type: cell-based, human; conditions: 0–5 μM, 24 h, SensiZyme kit, 405 nm, percent control, n = 2–3
Description: IMR-32 cells in culture were treated with peptides P4, P8 and scrambled peptide P1 (0–5 μM) or the BACE-1 inhibitor […] (Selleck Chemicals) (0–500 nM) for 24 h. Cells were harvested and extracts prepared by sonication and solubilization in cell lysis buffer containing 1% Triton X-100 and EDTA (Cell Signaling Technologies) and supplemented with complete protease inhibitor cocktail (Roche) according to the manufacturer’s protocols. BACE-1 activity was measured as already described above using the SensiZyme BACE-1 activity assay kit.

T1 sequence (P05067 18-612 isoform P05067-4 limits assumed): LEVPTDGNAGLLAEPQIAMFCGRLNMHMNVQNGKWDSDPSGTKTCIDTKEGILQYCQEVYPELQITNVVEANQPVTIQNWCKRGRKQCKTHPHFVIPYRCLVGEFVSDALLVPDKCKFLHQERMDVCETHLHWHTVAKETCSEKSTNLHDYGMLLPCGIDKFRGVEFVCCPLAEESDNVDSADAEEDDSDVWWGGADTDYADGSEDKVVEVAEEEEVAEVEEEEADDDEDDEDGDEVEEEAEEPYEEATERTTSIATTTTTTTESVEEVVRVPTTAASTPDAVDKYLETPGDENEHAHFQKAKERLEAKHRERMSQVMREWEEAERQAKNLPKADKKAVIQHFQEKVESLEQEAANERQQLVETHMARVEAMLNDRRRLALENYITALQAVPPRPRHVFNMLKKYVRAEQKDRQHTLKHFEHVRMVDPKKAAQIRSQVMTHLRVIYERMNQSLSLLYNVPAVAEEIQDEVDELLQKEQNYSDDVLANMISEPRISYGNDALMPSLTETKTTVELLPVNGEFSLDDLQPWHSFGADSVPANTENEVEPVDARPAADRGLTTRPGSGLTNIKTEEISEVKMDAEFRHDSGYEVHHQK

Row | Sequence | koff ([1]; 1:1 model, Kinetics Buffer) | kon ([1]; 1:1 model, Kinetics Buffer) | Kd ([1]; k off/k on, 1:1 model, Kinetics Buffer (1X PBS, 0.002% Tween-20, 0.01% BSA)) | Stability (in words) ([2]; matrix not stated) | Brain delivery (in words) ([2]; rats) | NICD levels in neocortex (in words) [3] | NICD levels in Jurkat cells, peptides (in words) [4] | Binding to purified APPs (in words) ([1]; Kinetics Buffer) | Effect on Aβ40 and 42 production in vitro (in words) ([5]; 0–5 μM peptide, 24 h, IMR-32 culture medium, ELISA) | Production of total Aβ and of Aβ 40 and 42 (summary in words) ([5]; Discussion summary, stated as in vitro and in vivo (mThy1-hAPP Tg mice)) | BACE-1 activity in IMR-32 cells, peptides (in words) (BACE-1 in IMR-32 cells)
1 | DEEEDEEL [Peptide P8] | 0.00306 s⁻¹ | 886000 M⁻¹ s⁻¹ | 3.45 nM | stable | can be successfully delivered to the brain in rats | not accompanied by any significant changes in the levels of NICD | no appreciable change in the levels of NICD | – | – | – | –
2 | PTERLLKGTVRLKQQLDQDESDARNLRNNLNPQRGFMALDESERHENRSAMQVESHQNPHPPYETEQENDEGSGSEYSNV [SP1, scrambled P1, control peptide] | – | – | – | – | – | – | – | no significant binding to APP | no significant changes in Aβ levels | did not reduce Aβ | remained essentially unchanged
